Test results as given in patent publication US11884708B2, “Stapled peptide inhibitors of nemo as potential anti-inflammatory and anti-cancer drugs” (INSTITUT PASTEUR, priority 2015, dated 2024).
Like-named read-outs stand apart in the source and are kept apart here. Where a SMILES comes first, the peptide text is derived from it. Bridges are numbered along the chain shown (N, C = ends). [ ]: non-standard residue; d: D form. The star is where a group is joined. BODIPYFLEthylmaleimide = Cc1cc(C)n2c1C=C1C=CC(CCC(=O)NCCN3C(=O)CC(*)C3=O)=[N+]1[B-]2(F)F; R8 = C=CCCCCCC[C@@](C)(N)C(=O)O; S5 = C=CCCC[C@](C)(N)C(=O)O

Key:
[1] = CD spectroscopy, α-helical content; type: physicochemical; settings: 50 μM peptide, phosphate buffer pH 7.0, UBI in TFE taken as 100%
[2] = Temperature-induced denaturation followed by CD; type: physicochemical; settings: 30 μM or 300 μM, ΔCp ≈ 0; for Tm: thermal denaturation by CD; for ΔH: van't Hoff enthalpy change at Tm
Experimental: Temperature-induced denaturation experiments were performed by measuring the ellipticity at 222 nm from 1° C. to 95° C. in 1° C. steps, at a rate of 1° C./min, with a 2 nm bandwidth. Thermodynamic parameters including the melting temperature (Tm) and the van't Hoff enthalpy change at the melting temperature (ΔHm) were determined by fitting the denaturation curves with the Gibbs-Helmholtz equation as described elsewhere, [10]. The heat capacity change (ΔCp) was assumed to be 0 as judged by ΔHm which yielded similar values within 10% at two independent peptide concentrations (30 and 300 μM). The ellipticity was converted to differential extinction coefficient Δε (M^−1·cm^−1) per residue taking into account the peptide concentration determined by amino acid analysis.
Thermal stability of the peptides was also investigated by performing thermal denaturation profiles followed by CD (FIGS. 1 C and D and Table III). […] Indeed, the helicity of UBI-Aib (49%) is only 1.16-fold increased at 1° C. compared to UBI (42%), while its melting temperature (Tm=−8° C.) is 2.25 times higher than that of UBI (Tm=−18° C.).

CC2-LZ domain of NEMO = CC2-LZ domain of NEMO (Mus musculus, UniProt O88522); assay: Fluorescence anisotropy/polarization binding assay; settings: for Kd: fixed peptide concentration 0.1 μM; for Binding affinity (FP) at 10 μM: fixed peptide concentration 10 μM
Chain of CC2-LZ domain of NEMO (O88522 242-343 limits assumed): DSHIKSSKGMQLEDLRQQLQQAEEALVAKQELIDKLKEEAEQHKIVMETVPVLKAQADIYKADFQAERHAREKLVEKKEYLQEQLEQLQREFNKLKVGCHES
Experimental: Measurements were performed on a Tecan infinite F500 equipped with polarizing filters and using excitation and emission wavelengths at 485 nm and 535 nm, respectively. Anisotropy data were calculated using the Magellan software version 6.5. Prior experiments, the mouse CC2-LZ was extensively dialyzed in binding buffer containing 20 mM HEPES pH 7.4, 100 mM NaCl, and 0.05% P20 detergent (v/v). All experiments were performed in a 384 well plate (vol 25 μl) at room temperature. The BODIPY®-labeled peptide concentrations were fixed at 0.1 or 10 μM whereas the CC2-LZ concentration varied from 0 to 100 μM. Reference calibrated at 22 mP, was based on the fluorescence of the peptide alone. Each experimental binding curve was determined from at least 10 independent concentration points. The G-factor was calculated as previously described in Agou et al. [7], with a value of 0.75, which was observed constant within 5% upon all titrations. For analysis, the blank value corresponding to the value of buffer alone, was subtracted from all titration data.
All NEMO peptides were conjugated to an extra N-terminal cysteine with the fluorophore BODIPY® or FITC to determine their binding affinity for the CC2-LZ domain of NEMO (also called NOA or UBAN) by fluorescence polarization. For each peptide titration, various concentration of the target ranging from 0 to 100 μM and a fixed concentration of peptide at 0.1 or 10 μM were used at 25° C. […] For these reasons, all further titration experiments were performed with a fixed peptide concentration of 0.1 μM unless otherwise indicated.

[3] = read-out: Binding affinity (FP) at 0.1 μM

Row | Structure (SMILES) | α-helical content at 1° C. [1] | ΔS [2] | Tm [2] | ΔH [2] | Kd (CC2-LZ domain of NEMO; [3]) | Binding affinity (FP) at 10 μM (CC2-LZ domain of NEMO) | Kd (CC2-LZ domain of NEMO; peptides with antennapedia, read-out: KD) | Kd (CC2-LZ domain of NEMO; peptides with antennapedia)
1 | CC(=O)N[C@@H](CSC1CC(=O)N(CCNC(=O)CCC2=[N+]3C(=Cc4c(C)cc(C)n4[B-]3(F)F)C=C2)C1=O)C(=O)N[C@@H](CCC(=O)O)C(=O)N[C@@H](CC(C)C)C(=O)N[C@@H](C)C(=O)N[C@@H](CCC(N)=O)C(=O)N[C@@H](CC(C)C)C(=O)N[C@@H](CCC(N)=O)C(=O)N[C@@H](C)C(=O)N[C@@H](CCC(=O)O)C(=O)N[C@@H](CC(C)C)C(=O)N[C@@H](CC(=O)O)C(=O)N[C@]1(C)CCCCCCC=CCCC[C@@](C)(C(=O)N[C@@H](CC(=O)O)C(=O)N[C@@H](CCCCN)C(=O)N[C@@H](CCC(N)=O)C(=O)N[C@@H](CCC(=O)O)C(=O)N[C@@H](CC(C)C)C(=O)N[C@@H](CCCNC(=N)N)C(=O)N[C@@H](CCCCN)C(=O)N[C@@H](CC(C)C)C(N)=O)NC(=O)[C@H](CCC(N)=O)NC(=O)[C@H](C(C)C)NC(=O)[C@H](C(C)C)NC(=O)[C@H](C)NC(=O)[C@H](CCC(N)=O)NC(=O)[C@H](C(C)C)NC1=O (single isomer, unassigned) [Co-SAHN I307-A314 (A), ELAQLQAELDXVQAVVQXDKQELRKL, reference compound] | A: 45% - | A: −24 - cal. mol^−1.K^−1 | A: 21 - B: C° | A: −6970 - (cal. mol)^−1 | > 1850 µM | – | – | –
2 | CC(=O)N[C@@H](CSC1CC(=O)N(CCNC(=O)CCC2=[N+]3C(=Cc4c(C)cc(C)n4[B-]3(F)F)C=C2)C1=O)C(=O)N[C@@H](CCC(=O)O)C(=O)N[C@@H](CC(C)C)C(=O)N[C@@H](C)C(=O)N[C@@H](CCC(N)=O)C(=O)N[C@@H](CC(C)C)C(=O)N[C@@H](CCC(N)=O)C(=O)N[C@@H](C)C(=O)N[C@@H](CCC(=O)O)C(=O)N[C@@H](CC(C)C)C(=O)N[C@@H](CC(=O)O)C(=O)N[C@]1(C)CCCCCCC=CCCC[C@@](C)(C(=O)N[C@@H](CC(=O)O)C(=O)N[C@@H](CCCCN)C(=O)N[C@@H](CCC(N)=O)C(=O)N[C@@H](CCC(=O)O)C(=O)N[C@@H](CC(C)C)C(=O)N[C@@H](CCCNC(=N)N)C(=O)N[C@@H](CCCCN)C(=O)N[C@@H](CC(C)C)C(N)=O)NC(=O)[C@H](CCC(N)=O)NC(=O)[C@H](C(C)C)NC(=O)[C@H](C(C)C)NC(=O)[C@H](C)NC(=O)[C@H](CCC(N)=O)NC(=O)[C@H](C(C)C)NC1=O (single isomer, unassigned) [Co-SAHN I307-A314 (B), ELAQLQAELDXVQAVVQXDKQELRKL, reference compound] | B: 58% | B: −24 cal. mol^−1.K^−1 | 32 ± 0.3 C° | B: −7200 (cal. mol)^−1 | > 800 µM | – | – | –
3 | CC[C@H](C)[C@@H]1NC(=O)[C@](C)(NC(=O)[C@H](C)NC(=O)[C@H](CCC(N)=O)NC(=O)[C@H](C)NC(=O)[C@H](CCCCN)NC(=O)[C@H](CC(C)C)NC(=O)[C@H](CSC2CC(=O)N(CCNC(=O)CCC3=[N+]4C(=Cc5c(C)cc(C)n5[B-]4(F)F)C=C3)C2=O)NC(C)=O)CCCCCCC=CCCC[C@@](C)(C(=O)N[C@@H](C)C(=O)N[C@@H](CCC(=O)O)C(=O)N[C@@H](CCCNC(=N)N)C(=O)N[C@@H](Cc2c[nH]cn2)C(=O)N[C@@H](C)C(=O)N[C@@H](CCCNC(=N)N)C(=O)N[C@@H](CCC(=O)O)C(=O)N[C@@H](CCCCN)C(N)=O)NC(=O)[C@H](Cc2ccccc2)NC(=O)[C@H](CCCNC(=N)N)NC(=O)[C@H](C)NC(=O)[C@H](CCCCN)NC(=O)[C@H](Cc2ccc(O)cc2)NC1=O (single isomer, unassigned) [UBI-SAHN D306-Q313 (A)] | A: 75% - | A: −16 - cal. mol^−1.K^−1 | 35 ± 0.3 C° | A: −4800 - (cal. mol)^−1 | 34 ± 6 µM | Very weak | – | –
4 | CC[C@H](C)[C@@H]1NC(=O)[C@](C)(NC(=O)[C@H](C)NC(=O)[C@H](CCC(N)=O)NC(=O)[C@H](C)NC(=O)[C@H](CCCCN)NC(=O)[C@H](CC(C)C)NC(=O)[C@H](CSC2CC(=O)N(CCNC(=O)CCC3=[N+]4C(=Cc5c(C)cc(C)n5[B-]4(F)F)C=C3)C2=O)NC(C)=O)CCCCCCC=CCCC[C@@](C)(C(=O)N[C@@H](C)C(=O)N[C@@H](CCC(=O)O)C(=O)N[C@@H](CCCNC(=N)N)C(=O)N[C@@H](Cc2c[nH]cn2)C(=O)N[C@@H](C)C(=O)N[C@@H](CCCNC(=N)N)C(=O)N[C@@H](CCC(=O)O)C(=O)N[C@@H](CCCCN)C(N)=O)NC(=O)[C@H](Cc2ccccc2)NC(=O)[C@H](CCCNC(=N)N)NC(=O)[C@H](C)NC(=O)[C@H](CCCCN)NC(=O)[C@H](Cc2ccc(O)cc2)NC1=O (single isomer, unassigned) [UBI-SAHN D306-Q313 (B)] | B: 76% | B: −17 cal. mol^−1.K^−1 | 35 ± 0.3 C° | B: −5290 (cal. mol)^−1 | – | Very weak | – | –
5 | CC[C@H](C)[C@H](NC(=O)[C@H](CC(=O)O)NC(=O)[C@H](C)NC(=O)[C@H](CCC(N)=O)NC(=O)[C@H](C)NC(=O)[C@H](CCCCN)NC(=O)[C@H](CC(C)C)NC(=O)[C@H](CCCCN)NC(=O)[C@H](CCCCN)NC(=O)[C@H](Cc1c[nH]c2ccccc12)NC(=O)[C@H](CCCCN)NC(=O)[C@H](CCSC)NC(=O)[C@H](CCCNC(=N)N)NC(=O)[C@H](CCCNC(=N)N)NC(=O)[C@H](CC(N)=O)NC(=O)[C@H](CCC(N)=O)NC(=O)[C@H](Cc1ccccc1)NC(=O)[C@H](Cc1c[nH]c2ccccc12)NC(=O)[C@@H](NC(=O)[C@H](CCCCN)NC(=O)[C@@H](NC(=O)[C@H](CCC(N)=O)NC(=O)[C@H](CCCNC(=N)N)NC(=O)[C@H](CSC1CC(=O)N(CCNC(=O)CCC2=[N+]3C(=Cc4c(C)cc(C)n4[B-]3(F)F)C=C2)C1=O)NC(C)=O)[C@@H](C)CC)[C@@H](C)CC)C(=O)N[C@@H](Cc1ccc(O)cc1)C(=O)N[C@@H](CCCCN)C(=O)N[C@@]1(C)CCCC=CCCC[C@@](C)(C(=O)N[C@@H](CCC(=O)O)C(=O)N[C@@H](CCCNC(=N)N)C(=O)N[C@@H](Cc2c[nH]cn2)C(=O)N[C@@H](C)C(=O)N[C@@H](CCCNC(=N)N)C(=O)N[C@@H](CCC(=O)O)C(=O)N[C@@H](CCCCN)C(N)=O)NC(=O)[C@H](CCC(N)=O)NC(=O)[C@H](Cc2ccccc2)NC(=O)[C@H](CCCNC(=N)N)NC1=O (stereo partly drawn) [A-UBI-SAHN A310-A314, RQIKIWFQNRRMKWKKLKAQADIYKX4RFQX6ERHAREK] (Ac-C(BODIPYFLEthylmaleimide)RQIKIWFQNRRMKWKKLKAQADIYK[S5]RFQ[S5]ERHAREK-NH2; staple 27-31) | 57% | – | – | – | – | – | 0.2 µM | –
6 | CC[C@H](C)[C@H](NC(=O)[C@H](CCCCN)NC(=O)[C@@H](NC(=O)[C@H](CCC(N)=O)NC(=O)[C@H](CCCNC(=N)N)NC(=O)[C@H](CSC1CC(=O)N(CCNC(=O)CCC2=[N+]3C(=Cc4c(C)cc(C)n4[B-]3(F)F)C=C2)C1=O)NC(C)=O)[C@@H](C)CC)C(=O)N[C@@H](Cc1c[nH]c2ccccc12)C(=O)N[C@@H](Cc1ccccc1)C(=O)N[C@@H](CCC(N)=O)C(=O)N[C@@H](CC(N)=O)C(=O)N[C@@H](CCCNC(=N)N)C(=O)N[C@@H](CCCNC(=N)N)C(=O)N[C@@H](CCSC)C(=O)N[C@@H](CCCCN)C(=O)N[C@@H](Cc1c[nH]c2ccccc12)C(=O)N[C@@H](CCCCN)C(=O)N[C@@H](CCCCN)C(=O)N[C@@H](CC(C)C)C(=O)N[C@@H](CCCCN)C(=O)N[C@@H](C)C(=O)N[C@@H](CCC(N)=O)C(=O)N[C@@H](C)C(=O)N[C@]1(C)CCCCCCC=CCCC[C@@](C)(C(=O)N[C@@H](C)C(=O)N[C@@H](CCC(=O)OC)C(=O)N[C@@H](CCCNC(=N)N)C(=O)N[C@@H](Cc2c[nH]cn2)C(=O)N[C@@H](C)C(=O)N[C@@H](CCCNC(=N)N)C(=O)N[C@@H](CCC(=O)OC)C(=O)N[C@@H](CCCCN)C(N)=O)NC(=O)[C@H](Cc2ccccc2)NC(=O)[C@H](CCCNC(=N)N)NC(=O)[C@H](C)NC(=O)[C@H](CCCCN)NC(=O)[C@H](Cc2ccc(O)cc2)NC(=O)[C@H]([C@@H](C)CC)NC1=O (stereo partly drawn) [A-UBI-SAHN D306-Q313 OMe, RQIKIWFQNRRMKWKKLKAQAX2IYKARFX5AX7RHARX9K] (Ac-C(BODIPYFLEthylmaleimide)RQIKIWFQNRRMKWKKLKAQA[R8]IYKARF[S5]AE(OMe)RHARE(OMe)K-NH2; staple 23-30) | – | – | – | – | – | – | – | 0.06 ± 0.01 µM
